PubChem BioAssay (NCI)
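How tested: cells in 96-well plates exposed to compound for 48 hours at five concentrations. GI50 marks 50% less growth. Definition used: TGI = concentration required for complete inhibition of growth.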

Assays:
Assay in all cases: DTP human tumour cell line panel, 48 h
[1] = test system: BT-549 breast
[2] = test system: CAKI-1 renal
[3] = test system: KM12 colon
[4] = test system: MDA-MB-231 breast
[5] = test system: SK-MEL-28 melanoma
[6] = test system: SN12C renal
[7] = test system: UACC-257 melanoma

| SMILES | GI50 [1] [µM] | TGI [1] [µM] | GI50 [2] [µM] | TGI [2] [µM] | GI50 [3] [µM] | TGI [3] [µM] | GI50 [4] [µM] | TGI [4] [µM] | GI50 [5] [µM] | TGI [5] [µM] | GI50 [6] [µM] | TGI [6] [µM] | GI50 [7] [µM] | TGI [7] [µM] |
| --- | --- | --- | --- | --- | --- | --- | --- | --- | --- | --- | --- | --- | --- | --- |
| O=C(O)COc1ccc(OCC(=O)O)cc1 | 1.47 | 11.6 | 22.2 | > 100 | 1.71 | 10.7 | 3.06 | 16.2 | 3.36 | 17 | 0.275 | 18 | 2.53 | 18.5 |
| COc1ccc(Nc2ncnc3ccc(-c4cncc(NS(C)(=O)=O)c4)cc23)cc1Cl | 1.67 | 7.12 | – | – | 3.15 | 11.7 | 2.71 | 15.3 | 2.75 | 18.4 | 3.09 | 18.7 | 2.82 | 14 |
| COc1ccc(CSC2=C(C#N)C(=O)NC3(CCCCC3)S2)cc1 | – | > 100 | – | > 100 | – | – | – | > 100 | – | > 100 | – | > 100 | – | > 100 |
| CC(C)C[C@H](NC(=O)Cn1cccc(CNC(=O)c2ccccc2)c1=O)B(O)O | 0.162 | 1.54 | 3.7 | 44.9 | 0.649 | 3 | 0.567 | 3.06 | 0.207 | 13 | 0.811 | 11.3 | 0.505 | 3.53 |
| COc1c(OC)c(OC)c2c(=O)cc(-c3ccc(OC(C)C)cc3)oc2c1OC | – | > 49.9 | – | 35.1 | – | > 100 | – | > 54.2 | – | > 55.4 | – | > 53.4 | – | > 58.9 |
| O=C1CC(c2cccc(Cl)c2)Oc2ccccc21 (stereo unspecified) | – | – | – | 23.3 | – | 39.5 | – | > 100 | – | 42.2 | – | – | – | 32.2 |
| CCC[CH2][Sn]([CH2]CCC)([CH2]CCC)/[C](=C/[Si](C)(C)c1ccccc1)c1ccc2c(c1)OCO2 | 19.1 | 44.3 | 16 | 48.2 | 16.2 | 34.1 | 14.8 | 32.8 | 16.2 | 33.4 | 19.1 | 39 | 22.4 | 58.7 |
| O=C1NC(=O)C(c2cccc(Cl)c2)=C1Nc1ccc(Cl)c(C(=O)O)c1 | > 25 | > 25 | > 25 | > 25 | > 25 | > 25 | > 25 | > 25 | > 25 | > 25 | > 25 | > 25 | > 25 | > 25 |
| FC(F)c1ncc(-c2ccc(C(F)(F)F)cc2)c(NC2CCCCCC2)n1 | > 10 | > 10 | > 10 | > 10 | > 10 | > 10 | > 10 | > 10 | > 10 | > 10 | > 10 | > 10 | > 10 | > 10 |
| CC(C)(C)c1ccc(C2CC(=O)C3=C(C2)Nc2ccccc2N(C(=O)c2ccccc2Cl)C3c2ccc(F)cc2)cc1 (stereo unspecified) | > 100 | > 100 | > 100 | > 100 | > 100 | > 100 | > 100 | > 100 | > 100 | > 100 | > 100 | > 100 | > 100 | > 100 |
| CN1CCN(Cc2ccc(NC(=O)c3[nH]ncc3Nc3ncnc4[nH]ccc34)cc2)CC1 | 0.297 | 1.07 | 1.83 | 8.19 | 0.347 | 10.9 | 0.371 | 0.941 | 0.411 | 4.24 | 0.333 | > 100 | 0.531 | 17.8 |
| Fc1ccc2c(c1)C1=C(CCC2)C(c2ccc(Cl)cc2)NC(=S)N1 (stereo unspecified) | > 100 | > 100 | 51.7 | > 100 | 32.3 | > 100 | 24.2 | > 100 | 78 | > 100 | 60.8 | 89.2 | 21.5 | 70 |
| COc1ccc(C2NN=C3c4ccccc4CCC32)cc1 (stereo unspecified) | 5.29 | 95.4 | 9.38 | 21.4 | 3.99 | > 100 | 17.8 | > 100 | 8.26 | 76.1 | 15.4 | 79.5 | 19.4 | 79.4 |
| COc1cc(F)c(F)cc1C(=O)c1cnc(NC2CCN(S(C)(=O)=O)CC2)nc1N | 4.29 | 18.6 | 3.79 | > 25 | 3.12 | > 22.4 | 3.04 | > 25 | 4.08 | > 25 | 4.49 | > 25 | 3.56 | > 22.7 |
| CN(C)C=N[C@@H](C(=O)O)c1ccccc1 | – | > 100 | – | – | – | – | – | > 100 | – | > 100 | – | > 100 | – | > 100 |
| COC(=O)c1onc(C2OC(C)(C)OC2C(O)COC(c2ccccc2)(c2ccccc2)c2ccccc2)c1C(=O)OC (stereo unspecified) | – | – | – | – | – | > 100 | – | > 100 | – | > 100 | – | > 100 | – | – |
| Nc1c(C(=O)c2cccc(C(O)CO)c2)cnn1-c1ccc(F)cc1 (stereo unspecified) | > 25 | > 25 | > 25 | > 25 | > 25 | > 25 | > 25 | > 25 | > 25 | > 25 | > 25 | > 25 | > 25 | > 25 |
| Cc1nn(C)c2ncnc(N/N=C/c3cccc(O)c3O)c12 | 0.602 | > 100 | 1.31 | 16.5 | 0.392 | > 100 | 0.486 | 39.5 | 0.455 | > 100 | 0.481 | > 100 | 1.38 | > 37.1 |
| CCN1CCN(c2cc(C(=O)Nc3cccc(Nc4ccc5c(OC)cccc5n4)c3)cc(C(F)(F)F)c2)CC1 | 3.78 | 8.67 | 0.917 | 4.97 | 1.71 | 6.35 | 1.8 | 6.47 | 0.846 | 2.2 | 1.4 | 5.57 | 1.02 | 3.6 |
